# Assay results taken from patent US10525032B2, “Antimicrobial compositions comprising mupirocin and neomycin” (University of Rochester, priority 2015, dated 2020).
# Read-outs that look alike come from different tables or passages of the source.
# Legend:
# S. aureus strain UAMS-1 [1] = assay: Minimum inhibitory concentration (MIC) testing, CLSI microtiter, with or without mupirocin; format: cell-based, Staphylococcus aureus; settings: for MIC: Staphylococcus aureus
# Experimental: Screen of Selleck Library. Members of the Selleck Library of Food and Drug […] approved drugs (Selleck Chemicals, Houston Tex., L1300) were screened for agents that potentiate the antimicrobial activity of mupirocin toward S. aureus strain UAMS-1. To do so, 1×10^5 colony forming units of UAMS-1 were added to individual wells of a 96-well microtiter plate, mixed with 0.03 μg/mL mupirocin (0.5× minimum inhibitory concentration) and 50 μM of test agent in Mueller Hinton broth (MHB; 100 μL total well volume). Microtiter plates were incubated at 37° C. for 16 hr, and individual wells were inspected for growth. Wells lacking growth were considered to represent agents that either potentiated the antimicrobial properties of mupirocin or mupirocin-independent antimicrobial microbial properties.
# (§1) Antimicrobial Susceptibility Testing. Minimum inhibitory concentration (MIC) was tested in accordance with the Clinical and Laboratory Standards Institute (CLSI) guidelines. Briefly, 1×10^5 CFU of the indicated S. aureus strain was added to individual wells of a microtiter plate containing 88 μL of MHB media and two-fold increasing concentrations of mupirocin or test agent (0-128 μg ml^−1). Plates were incubated for 16 hr at 37° C. and wells were visually inspected for growth. The lowest concentration of mupirocin or test agent that inhibited S. aureus growth was considered to be the minimum inhibitory concentration. Fractional inhibitory concentration index (FIC) testing was performed to measure interactions between mupirocin and neomycin, as previously described. See Odds F C. 2003. Synergy, antagonism, and what the chequerboard puts between them. The Journal of antimicrobial chemotherapy 52:1. Briefly, in checkerboard format each row of the plate contained increasing concentrations of mupirocin (2-fold increments; 0-0.5 μg/mL), whereas each column contained increasing concentrations of neomycin (2-fold increments; 0-32 μg/mL). To every well (100 μl total volume) MHB containing 3×10^5 CFU of S. aureus strain UAMS-1 was added and the plate was incubated at 37° C. overnight (16-20 hr). The FIC was determined using the following formula: (MIC of Drug A in Combination/MIC of Drug A Alone)+(MIC of Drug B in Combination/MIC of Drug B Alone)=FIC. A synergistic interaction was defined as an FIC value≤0.5, additive as FIC value 0.5-1.0, no interaction as an FIC of 1-4, or an antagonistic interaction FIC>4.
# Members of the Selleck library of 853 FDA approved drugs were screened for agents that potentiate the activity of mupirocin. […] Conversely, the antimicrobial activity of Nitazoxanide, Nitrofurazone, and Neomycin sulfate, increased in the presence of mupirocin.
# S. aureus strain UAMS-1 [2] = assay: Fractional inhibitory concentration index (FIC) checkerboard testing with mupirocin; format: cell-based, Staphylococcus aureus; settings: combined with mupirocin, additive = 0.5-1.0
# Experimental: as §1
# S. aureus strain UAMS-1 [3] = assay: Murine dermal wound model of infection; format: in vivo, Staphylococcus aureus
# Experimental: Dermal Wound Model of Infection and Treatment of Mice. The effects of ointment compilations were evaluated for in vivo antimicrobial activity using a S. aureus dermal wound model, but with modifications. See Guthrie K M, Agarwal A, Tackes D S, Johnson K W, Abbott N L, Murphy C J, Czuprynski C J, Kierski P R, Schurr M J, McAnulty J F. 2012. Antibacterial efficacy of silver-impregnated polyelectrolyte multilayers immobilized on a biological dressing in a murine wound infection model. Annals of surgery 256:371-377. Mice were anesthetized by intraperitoneal injection with a mixture of 100 mg ml^−1 Ketamine (Hospira Inc., Lake Forest Ill.) and 20 mg ml^−1 Xylazine (Lloyd Laboratories, Shenandoah Iowa) in NaCl at five μ1 per 1 g body weight. Pain relief in the form of 20 μL 0.5% Sensorcaine (APP Pharmaceuticals, Schaumburg, Ill.) was administered prior to dermal wounding. […]
# To do so, a dermal wound was created on the back of Balb-c mice, inoculated with either S. aureus strain UAMS-1, USA300, or BAA-1708, and then treated with test agent suspended in PEG-based ointment twice a day for a total of 3 days, at which point bacterial burden was measured.
# S. aureus strain UAMS-1 [4] = settings: previous studies; cited from earlier work
# S. aureus strain UAMS-1 [5] = format: in vivo, Staphylococcus aureus; settings: Balb-c mice
# Experimental: Nasal Colonization and Treatment of Mice. Ointments were evaluated for in vivo antimicrobial activity using a S. aureus nasal colonization model as previously described, but with modifications. See Kiser K B, Cantey-Kiser J M, Lee J C. 1999. Development and characterization of a Staphylococcus aureus nasal colonization model in mice. Infect Immun 67:5001-5006. The nostrils of awake mice were inoculated with 1×10^7 of the indicated S. aureus strain by pipetting 10 μL of culture directly into the nostrils and confirmed by the visualization of air bubbles appearing as the mouse breathed in and out. Mice nostrils were then treated with 10 μL PEG ointment (brought to 55° C. in a heat block to liquefy) containing either vehicle alone or the indicated antibiotic 45 min post inoculation and treatments were repeated every 8 hr for three days. […]
# A murine model of S. aureus nasal colonization was used to compare the antimicrobial efficacy of mupirocin, neomycin, and the two agents when applied in combination. To do so, the nasal passage of Balb-c mice were inoculated with ˜1×10^7 colony forming units of S. aureus then treated three times a day for a total of three days, at which point the bacterial burden was measured and the antibiotic susceptibility of ten isolates from each animal was measured by MIC testing.
# strain BAA-1708 = assay: MIC testing; format: cell-based; settings: Staphylococcus aureus, BAA1708; BAA-1708 (mupA), data not shown
# Experimental: as §1, with “To every well (100 μl total volume) MHB containing 3×10^5 CFU of S. aureus strain UAMS-1 was added and the plate was incubated at 37° C. overnight (16-20 hr).” left out, “A synergistic interaction was defined as an FIC value≤0.5, additive as FIC value 0.5-1.0, no interaction as an FIC of 1-4, or an antagonistic interaction FIC>4.” left out
# USA300 = assay: MIC testing; format: cell-based, Staphylococcus aureus; settings: USA300, data not shown
# Experimental: as §1, with “To every well (100 μl total volume) MHB containing 3×10^5 CFU of S. aureus strain UAMS-1 was added and the plate was incubated at 37° C. overnight (16-20 hr).” left out, “A synergistic interaction was defined as an FIC value≤0.5, additive as FIC value 0.5-1.0, no interaction as an FIC of 1-4, or an antagonistic interaction FIC>4.” left out
# S. aureus RNase P = assay: RNase P ptRNA processing assay; format: biochemical, Staphylococcus aureus; settings: 250 μM, in vitro
# Experimental: RNase P ptRNA Processing Assay. S. aureus RNase P activity assays were performed as previously described. See Eidem T M, Lounsbury N, Emery J F, Bulger J, Smith A, Abou-Gharbia M, Childers W, Dunman P M. 2015. Small-molecule inhibitors of Staphylococcus aureus RnpA-mediated RNA turnover and tRNA processing. Antimicrob Agents Chemother 59:2016-2028. Briefly, RNase P was first reconstituted by mixing an equimolar ratio of denatured rnpB and RnpA for 15 min at 37° C. then added (5 pmol) to 10 pmol of ptRNA^Tyr, and increasing concentrations of the indicated concentration of neomycin or the known RNase P inhibitor, RNPA2000 in a total volume of 20 μl. […] A FluorChem 5500 imaging system was used to visualize RNA products and quantified using ImageJ software (National Institutes of Health, Bethesda Md.). The percent RNase P activity was then calculated using the following equation: test compound tRNA^Tyr signal/mock tRNA^Tyr signal.
# Aminoglycoside antibiotics, such has neomycin, contain a central deoxystreptamine ring decorated with amino-sugar modifications and act by binding to the major groove of the 16S rRNA to disrupt the fidelity of tRNA selection and block protein translation. […] A real-time fluorescence polarization activity assay to screen for inhibitors of bacterial ribonuclease P. Nucleic acids research 42:e159.
# [6] = UAMS1, medium containing 0.25× the strain's mupirocin MIC, UAMS-1, read-out: MIC (+) Mup.
# [7] = UAMS1, read-out: MIC (−) Mup., medium lacking mupirocin, UAMS-1
molecule,measurement,setting,value
CC(=O)Oc1ccccc1C(=O)Nc1ncc([N+](=O)[O-])s1 [Nitazoxanide],MIC,S. aureus strain UAMS-1 [1]; [6],8 µg/mL
same,MIC,S. aureus strain UAMS-1 [1]; [7],16 µg/mL
same,Fractional Inhibitory Concentration Index,S. aureus strain UAMS-1 [2],0.75
NC(=O)N/N=C/c1ccc([N+](=O)[O-])o1 [Nitrofurazone],MIC,S. aureus strain UAMS-1 [1]; [6],8 µg/mL
same,MIC,S. aureus strain UAMS-1 [1]; [7],16 µg/mL
same,Fractional Inhibitory Concentration Index,S. aureus strain UAMS-1 [2],0.75
CC(C)c1ccc(OCC(=O)NNC(=S)NC(=O)c2ccco2)cc1 [RNPA2000],wound decolonization (in words),S. aureus strain UAMS-1 [3],does not exhibit antimicrobial activity
same,FIC measures with mupirocin,S. aureus strain UAMS-1 [4],< 0.5
same,nasal decolonization (in words),S. aureus strain UAMS-1 [5],does not exhibit antimicrobial activity
C/C(=C\C(=O)OCCCCCCCCC(=O)O)C[C@@H]1OC[C@H](C[C@@H]2O[C@H]2[C@@H](C)[C@H](C)O)[C@@H](O)[C@H]1O [mupirocin],MIC,strain BAA-1708,> 256 µg/mL
same,MIC,"S. aureus strain UAMS-1 [1]; UAMS1, UAMS-1 isolates from two 2% mupirocin treated mice with higher nasal burdens",0.5 µg/mL
same,MIC,"S. aureus strain UAMS-1 [1]; UAMS1, inoculating strain UAMS-1 and isolates from the other animals of the 2% mupirocin nasal treatment group",0.125 µg/mL
same,MIC,"S. aureus strain UAMS-1 [1]; UAMS1, read-out: mupirocin minimum inhibitory concentration (MIC), UAMS-1, as stated for the library screen",0.3 µg/mL
same,increase in mupirocin tolerance,S. aureus strain UAMS-1 [1]; isolates from two higher-burden mice versus inoculating strain,4 fold
neomycin,MIC (+) Mup.,"S. aureus strain UAMS-1 [1]; medium containing 0.25× the strain's mupirocin MIC, UAMS-1",0.25 µg/mL
same,MIC (−) Mup.,"S. aureus strain UAMS-1 [1]; medium lacking mupirocin, UAMS-1",0.5 µg/mL
same,Fractional Inhibitory Concentration Index,S. aureus strain UAMS-1 [2],0.75
same,MIC,USA300,128 µg/mL
same,inhibition of RNase P-catalyzed maturation of precursor tRNA^Tyr,S. aureus RNase P,inhibit
